Activity calls are given as the source filed them. The rule behind the calls is not given here.
Columns and labels:
CNE-2 = assay: Antiproliferative activity against human CNE-2 cells assessed as inhibition of cell viability incubated for 48 hrs by CCK8 method; assay type: functional, cell-based; conditions: CNE-2, 48 h
MCF7 = assay: Antiproliferative activity against human MCF7 cells assessed as inhibition of cell viability incubated for 48 hrs by CCK8 method; assay type: functional, cell-based; conditions: MCF7, 48 h
HCT-116 = assay: Antiproliferative activity against human HCT-116 cells assessed as inhibition of cell viability incubated for 48 hrs by CCK8 method; assay type: functional, cell-based; conditions: HCT-116, 48 h
MOLM-13 [1] = assay: Antiproliferative activity against human MOLM-13 cells assessed as inhibition of cell viability incubated for 48 hrs by CCK8 method; assay type: functional, cell-based; conditions: MOLM-13, 48 h
HepG2 = assay: Antiproliferative activity against human HepG2 cells assessed as inhibition of cell viability incubated for 48 hrs by CCK8 method; assay type: functional, cell-based; conditions: HepG2, 48 h
HeLa = assay: Antiproliferative activity against human HeLa cells assessed as inhibition of cell viability incubated for 48 hrs by CCK8 method; assay type: functional, cell-based
A549 = assay: Antiproliferative activity against human A549 cells assessed as inhibition of cell viability incubated for 48 hrs by CCK8 method; assay type: functional, cell-based; conditions: A549, 48 h
MDA-MB-231 = assay: Antiproliferative activity against human MDA-MB-231 cells assessed as inhibition of cell viability incubated for 48 hrs by CCK8 method; assay type: functional, cell-based; conditions: MDA-MB-231, 48 h
[2] = target: T1, Cyclin-dependent kinase 9 (Homo sapiens, UniProt P50750); assay: Inhibition of CDK9 (unknown origin) at 20 uM incubated for 10 mins relative to control
[3] = target: T1, Cyclin-dependent kinase 9; assay: Inhibition of CDK9 (unknown origin) incubated for 10 mins
[4] = Stability of the compound in artificial intestinal fluid assessed as compound remaining measured upto 8 hrs by HPLC analysis; assay type: ADME; conditions: read-out: Stability
[5] = Stability in human plasma assessed as compound remaining measured upto 4 hrs by HPLC analysis; assay type: ADME, cell-free; conditions: read-out: Stability
[6] = Stability in rat liver microsomes assessed as compound remaining measured upto 3 hrs by HPLC analysis; assay type: ADME, Microsome; conditions: read-out: Stability
[7] = Stability of the compound in artificial gastric fluid assessed as compound remaining measured upto 8 hrs by HPLC analysis; assay type: ADME; conditions: read-out: Stability
MOLM-13 [8] = assay: Induction of apoptosis in human MOLM-13 cells assessed as late apoptotic cells at 10 uM incubated for 24 hrs by Annexin V-FITC and propidium iodide staining based flow cytometry analysis (reference value: 3.65%); assay type: functional
MOLM-13 [9] = assay: Induction of apoptosis in human MOLM-13 cells assessed as viable cells at 10 uM incubated for 24 hrs by Annexin V-FITC and propidium iodide staining based flow cytometry analysis (reference value: 92.7%); assay type: functional; conditions: read-out: Activity
MOLM-13 [10] = assay: Induction of apoptosis in human MOLM-13 cells assessed as early apoptotic cells at 10 uM incubated for 24 hrs by Annexin V-FITC and propidium iodide staining based flow cytometry analysis (reference value: 2.86%); assay type: functional
MOLM-13 [11] = assay: Induction of apoptosis in human MOLM-13 cells assessed as necrotic cells at 10 uM incubated for 24 hrs by Annexin V-FITC and propidium iodide staining based flow cytometry analysis (reference value: 0.84%); assay type: functional
MOLM-13 [12] = assay: Induction of apoptosis in human MOLM-13 cells assessed as late apoptotic cells at 5 uM incubated for 24 hrs by Annexin V-FITC and propidium iodide staining based flow cytometry analysis (reference value: 3.65%); assay type: functional
MOLM-13 [13] = assay: Induction of apoptosis in human MOLM-13 cells assessed as early apoptotic cells at 5 uM incubated for 24 hrs by Annexin V-FITC and propidium iodide staining based flow cytometry analysis (reference value: 2.86%); assay type: functional
[14] = target: T1, Cyclin-dependent kinase 9; assay: Inhibition of CDK9 in human MOLM-13 cells assessed as suppression of p-RNAP II CTD (Ser2 residue) phosphorylation incubated for 24 hrs by Western blot analysis; assay type: cell-based; conditions: dose 10-25 µM
MOLM-13 [15] = assay: Induction of apoptosis in human MOLM-13 cells incubated for 24 hrs by Annexin V-FITC and propidium iodide staining based flow cytometry analysis; assay type: functional, cell-based; conditions: dose 2.5-10 µM
MOLM-13 [16] = assay: Induction of apoptosis in human MOLM-13 cells assessed as early apoptotic cells at 2.5 uM incubated for 24 hrs by Annexin V-FITC and propidium iodide staining based flow cytometry analysis (reference value: 2.86%); assay type: functional
MOLM-13 [17] = assay: Induction of apoptosis in human MOLM-13 cells assessed as necrotic cells at 5 uM incubated for 24 hrs by Annexin V-FITC and propidium iodide staining based flow cytometry analysis (reference value: 0.84%); assay type: functional
MOLM-13 [18] = assay: Induction of apoptosis in human MOLM-13 cells assessed as viable cells at 2.5 uM incubated for 24 hrs by Annexin V-FITC and propidium iodide staining based flow cytometry analysis (reference value: 92.7%); assay type: functional; conditions: read-out: Activity
[19] = target: T1, Cyclin-dependent kinase 9; assay: Inhibition of CDK9 in human MOLM-13 cells assessed as decrease in Mcl-1 expression incubated for 24 hrs by Western blot analysis; assay type: cell-based; conditions: dose 10-25 µM
MOLM-13 [20] = assay: Induction of apoptosis in human MOLM-13 cells assessed as late apoptotic cells at 2.5 uM incubated for 24 hrs by Annexin V-FITC and propidium iodide staining based flow cytometry analysis (reference value: 3.65%); assay type: functional
MOLM-13 [21] = assay: Induction of apoptosis in human MOLM-13 cells assessed as viable cells at 5 uM incubated for 24 hrs by Annexin V-FITC and propidium iodide staining based flow cytometry analysis (reference value: 92.7%); assay type: functional; conditions: read-out: Activity
MOLM-13 [22] = assay: Induction of apoptosis in human MOLM-13 cells assessed as necrotic cells at 2.5 uM incubated for 24 hrs by Annexin V-FITC and propidium iodide staining based flow cytometry analysis (reference value: 0.84%); assay type: functional
[23] = target: T1, Cyclin-dependent kinase 9; assay: Inhibition of CDK9 in human MOLM-13 cells assessed as increase in cleaved PARP level at 10 to 25 uM incubated for 24 hrs by Western blot analysis; assay type: cell-based; conditions: dose 10-25 µM

T1 sequence (P50750 whole entry): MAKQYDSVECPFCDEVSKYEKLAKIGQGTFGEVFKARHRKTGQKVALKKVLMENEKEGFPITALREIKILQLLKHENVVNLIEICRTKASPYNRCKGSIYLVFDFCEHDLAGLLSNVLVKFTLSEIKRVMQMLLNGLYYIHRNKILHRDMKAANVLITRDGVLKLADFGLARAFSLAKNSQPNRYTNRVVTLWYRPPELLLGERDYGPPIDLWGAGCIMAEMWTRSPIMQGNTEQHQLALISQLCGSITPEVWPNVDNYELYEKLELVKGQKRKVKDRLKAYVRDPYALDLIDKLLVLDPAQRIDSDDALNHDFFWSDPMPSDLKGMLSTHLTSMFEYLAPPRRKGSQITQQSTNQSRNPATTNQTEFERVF

IC50 (MCF7)	IC50 (HCT-116)	IC50 (MOLM-13 [1])	IC50 (HepG2)	IC50 (HeLa)	IC50 (A549)	IC50 (MDA-MB-231)	inhibition [2]	IC50 [3]	remaining at 8 h [4]	remaining at 4 h [5]	remaining at 3 h [6]	remaining at 8 h [7]	Compound	IC50 (CNE-2)	other results
29 µM	> 50 µM	4.58 µM	29 µM	25.1 µM	28.2 µM	14.5 µM	92.2%	0.504 µM	> 90%	> 90%	> 90%	> 90%	Nc1nc(NCCc2ccccc2)nc(-c2cc(Cl)ccc2O)n1	> 50 µM	
6.14 µM	3.22 µM	11.8 µM	> 50 µM	6.61 µM	15.3 µM	8.34 µM	76.4%	0.219 µM	> 90%	> 90%	> 90%	> 90%	O=C(Cn1cc(Br)c(=O)n(CC(=O)Nc2ccc(Br)cn2)c1=O)Nc1ccc(Br)cn1	28.3 µM	
0.71 µM	0.03 µM	0.07 µM	0.56 µM	0.15 µM	0.1 µM	0.06 µM							CN1CC[C@H](c2c(O)cc(O)c3c(=O)cc(-c4ccccc4Cl)oc23)[C@H](O)C1 [ALVOCIDIB]	0.12 µM	Activity (MOLM-13 [8]): 7.81%; viability at 10 µM (MOLM-13 [9]): 44.5%; Activity (MOLM-13 [10]): 25.5%; Activity (MOLM-13 [11]): 22.3%
23.5 µM	22.2 µM	3.92 µM	> 50 µM	2.53 µM	> 50 µM	11.7 µM	88.4%	0.295 µM	> 90%	> 90%	> 90%	> 90%	Nc1nc(Nc2ccccc2)nc(-c2cc(Cl)ccc2O)n1	34.5 µM	Activity (MOLM-13 [12]): 3.96%; Activity (MOLM-13 [8]): 5.43%; Activity (MOLM-13 [13]): 3.97%; viability at 10 µM (MOLM-13 [9]): 87.1%; inhibition [14]: Dose-Dependent Effect; Activity (MOLM-13 [15]): Dose-Dependent Effect; Activity (MOLM-13 [10]): 6.13%; Activity (MOLM-13 [16]): 3.2%; Activity (MOLM-13 [17]): 1.12%; viability at 2.5 µM (MOLM-13 [18]): 92.1%; Activity (MOLM-13 [11]): 1.38%; inhibition [19]: Dose-Dependent Effect; Activity (MOLM-13 [20]): 3.88%; viability at 5 µM (MOLM-13 [21]): 90.9%; Activity (MOLM-13 [22]): 0.77%; inhibition [23]: Active

Further lines, the molecule ahead of its results:

Compound	IC50 (MCF7)	IC50 (HCT-116)	IC50 (MOLM-13 [1])	IC50 (HepG2)	IC50 (HeLa)	IC50 (A549)	IC50 (MDA-MB-231)	inhibition [2]	IC50 [3]	remaining at 8 h [4]	remaining at 4 h [5]	remaining at 3 h [6]	remaining at 8 h [7]	IC50 (CNE-2)	other results
O=C(NCCc1c[nH]c2ccc(Cl)cc12)c1cc(-c2cccnc2)n[nH]1	20.9 µM	15.6 µM	2.52 µM	19.8 µM	29.4 µM	> 50 µM	28.2 µM	22.7%						17.1 µM	
CCCCNc1nc(N)nc(-c2cc(Cl)ccc2O)n1	11.3 µM	27.2 µM	13.5 µM	40.9 µM	13.7 µM	19.2 µM	16 µM	93.6%	0.214 µM					17 µM	
CCNc1nc(N)nc(-c2cc(Cl)ccc2O)n1	18.9 µM	26.6 µM	15.2 µM	49.2 µM	7.38 µM	> 50 µM	21.2 µM	93.7%	0.335 µM					30.4 µM	
